Data published in PubChem BioAssay (NCI).
Values joined by “and” are separate entries in the source; they are usually repeats but may differ in a detail not shown here. Equal entries are not always repeated.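 A five-concentration, 48-hour dose response in 96-well plates underlies each endpoint, interpolated linearly between surrounding concentrations. At the GI50, growth is halved. TGI: total growth inhibition.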

Key:
Assay in all cases: NCI tumour cell line growth inhibition, 48 h
MDA-N = system: MDA-N
DLD-1 colon = system: DLD-1 colon
DMS 114 small cell lung = system: DMS 114 small cell lung
DMS 273 small cell lung = system: DMS 273 small cell lung
HOP-18 NSCLC = system: HOP-18 NSCLC
KM20L2 colon = system: KM20L2 colon
RXF-631 renal = system: RXF-631 renal
XF 498 CNS = system: XF 498 CNS
SNB-78 CNS = system: SNB-78 CNS
SN12K1 renal = system: SN12K1 renal

| SMILES | TGI (MDA-N) | TGI (DLD-1 colon) | TGI (DMS 114 small cell lung) | TGI (DMS 273 small cell lung) | TGI (HOP-18 NSCLC) | TGI (KM20L2 colon) | TGI (RXF-631 renal) | TGI (XF 498 CNS) | TGI (SNB-78 CNS) | GI50 (DLD-1 colon) | GI50 (DMS 273 small cell lung) | GI50 (KM20L2 colon) | TGI (SN12K1 renal) | GI50 (SNB-78 CNS) | GI50 (XF 498 CNS) | GI50 (DMS 114 small cell lung) | GI50 (HOP-18 NSCLC) | GI50 (RXF-631 renal) |
| --- | --- | --- | --- | --- | --- | --- | --- | --- | --- | --- | --- | --- | --- | --- | --- | --- | --- | --- |
| Cc1ccc(-c2ccc(Nc3c4ccccc4nc4ccccc34)cc2)cn1 | 19.6 µM |  |  |  |  |  |  |  |  |  |  |  |  |  |  |  |  |  |
| CC(=O)O[C@H]1[C@@H]2[C@@H]3[C@@H](C[C@H]1C)[C@@H](C)CO[C@@]1(C)CC/C=C(/C)C[C@@H]2O[C@@H]31 |  | > 100 µM | > 100 µM | > 100 µM | > 100 µM | > 100 µM | > 100 µM | > 100 µM |  |  |  |  |  |  |  |  |  |  |
| FC(F)(F)c1ccc(C=NC23CC4CC(CC(C4)C2)C3)cc1 |  |  | > 100 µM | > 100 µM |  | > 100 µM |  |  | > 100 µM |  |  |  |  |  |  |  |  |  |
| COc1cc(-c2oc3c(OC)c(OC)cc(O)c3c(=O)c2OC)ccc1O | > 50 µM | > 100 µM | > 100 µM |  |  | > 100 µM | > 100 µM | 16.1 µM | > 100 µM |  |  |  |  |  |  |  |  |  |
| C#CCN1CCN(C(=S)N/N=C(\C)c2ccccn2)CC1 | 3.76 µM and 8.58 µM | 6.58 µM |  | 4.57 µM | 10.6 µM | 15 µM |  | 2.72 µM | 21.7 µM | 0.00155 µM | 0.0092 µM | < 0.001 µM | 2.22 µM |  |  |  |  |  |
| CC(=O)OCC1OC(OC2CC3C(C)(C)C(OC(C)=O)CC[C@]3(C)C3CCC45CC4(CC[C@H]5C(C)CC(O)C4OC4(C)C)[C@]23C)C(O)C(O)C1O (stereo not given in full) |  | 4.4 µM and 4.77 µM | 5.46 µM and 4.32 µM | 5.76 µM and 4.37 µM | 8.91 µM and 5.96 µM |  | 9.55 µM | 3.64 µM and 3.81 µM | 13.3 µM and 16.2 µM | 2.38 µM |  | > 60 µM |  | 3.96 µM | 1.26 µM |  |  |  |
| Cc1ccc(NC(=O)CC(=O)n2nc(-c3ccccc3)c(N=Nc3ccc(Cl)cc3)c2-c2ccccc2)cc1 |  | 54.4 µM | > 100 µM | > 100 µM | > 100 µM | > 100 µM | > 100 µM |  | > 100 µM |  |  |  |  |  |  |  |  |  |
| O=C(CC/C(C/C(=N/O)c1ccc(F)cc1)=N/O)N(Cc1ccccc1)Cc1ccccc1 |  | > 100 µM | > 100 µM | > 100 µM | > 100 µM | > 100 µM |  |  |  |  |  |  |  |  |  |  |  |  |
| O=C1CC2CCCCC2=C1O (stereo not given) |  | > 100 µM | > 100 µM | > 100 µM |  |  | > 100 µM | > 100 µM | > 100 µM |  |  |  |  |  |  |  |  |  |
| CC1CCCC(C(O)CC2CC(=O)N(c3ccccc3)C(=O)C2)C1=O (stereo not given) |  | > 100 µM | > 100 µM | > 100 µM | > 100 µM | > 100 µM |  |  | > 100 µM |  |  |  |  |  |  |  |  |  |
| C/C(=N\NC(=O)CC(=O)Nc1ccc(Cl)cc1)c1cc2ccccc2oc1=O |  | > 100 µM | > 100 µM | > 100 µM | > 100 µM | > 100 µM |  | > 100 µM |  |  |  |  |  |  |  |  |  |  |
| Cn1cc2c(n1)c(N/N=C/c1ccccc1)nn1nnnc21 |  | > 100 µM | > 100 µM | > 100 µM | > 100 µM | > 100 µM | > 100 µM | > 100 µM | > 100 µM |  |  |  |  |  |  |  |  |  |
| C(CCc1nnc2c(n1)CCCC2)Cc1nnc2c(n1)CCCC2 | > 100 µM |  |  |  |  |  |  |  |  |  |  |  |  |  |  |  |  |  |
| C=CCNC1=C(C(=O)OCC)C(=O)CO1 |  | > 100 µM | > 100 µM | > 100 µM |  | > 100 µM | > 100 µM | > 100 µM | > 100 µM |  |  |  |  |  |  |  |  |  |
| COC(=O)c1ccc(=O)c2nc3/c(=C/O)c(O)cc(=O)c3[nH]c12 | 24.6 µM |  |  |  |  |  |  |  |  |  |  |  |  |  |  |  |  |  |
| CC[C@@]1(O)C(=O)OCc2c1cc1n(c2=O)Cc2cc3cc(OC)ccc3nc2-1 | 1.04 µM |  | 1.02 µM | 1.58 µM |  |  |  |  |  |  |  |  |  |  |  |  |  |  |
| CC1C=C(OC(=O)c2ccccc2)C(=O)C(n2cc(F)c(=O)n(C(=O)c3ccccc3)c2=O)O1 (stereo not given) |  | > 100 µM | > 100 µM | > 100 µM | > 100 µM | 81.9 µM | > 100 µM | 73.3 µM | > 100 µM |  |  |  |  |  |  |  |  |  |
| O=C([O-])c1ccc2c(c1)-c1nc-2nc2[n-]c(nc3nc(nc4[n-]c(n1)c1ccc(C(=O)[O-])cc41)-c1cc(C(=O)[O-])ccc1-3)c1ccc(C(=O)[O-])cc21.[Fe+2] |  | > 50 µM | > 32.6 µM | > 50 µM | > 50 µM | > 50 µM | > 50 µM | > 50 µM | > 50 µM | > 32.1 µM | > 43.9 µM | > 50 µM |  | > 50 µM | > 50 µM | > 23.2 µM | > 50 µM | > 50 µM |
